From patent US20260240895A1, “BETA-GLUCAN PARTICLES FOR TRAINED IMMUNITY” (THE PROVOST, FELLOWS, FOUNDATION SCHOLARS, AND THE OTHER …, priority 2022, published 2026) come the findings set out here.

The subject of assay [1] is human monocytes / monocyte-derived macrophages (hMDM). Kind of assay: Human monocyte training assay: cytokine ELISA after restimulation of monocyte-derived macrophages. It is filed as cell-based. In general terms: In an ELISA, binding on a coated surface is turned into a signal by an enzyme label.
A further assay has as its target T1, Dectin-1b (Homo sapiens, UniProt Q9BXN2).
T1 construct: host or cells: HEK293 (HEK-Blue) NFκB-SEAP reporter cells
T1 sequence (Q9BXN2 1-201 isoform Q9BXN2-2): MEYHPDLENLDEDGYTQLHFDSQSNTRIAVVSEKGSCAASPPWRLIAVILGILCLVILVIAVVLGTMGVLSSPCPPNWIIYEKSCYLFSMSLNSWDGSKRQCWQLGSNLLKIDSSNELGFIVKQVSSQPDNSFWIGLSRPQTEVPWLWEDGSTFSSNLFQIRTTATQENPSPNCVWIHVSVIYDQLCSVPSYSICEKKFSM
Kind of assay: hDectin1b-HEK293 NFκB-SEAP reporter cell assay (QuantiBlue). Particulars: for NFκB-linked SEAP activity (Dectin-1b activation): β-glucans 1, 10 & 100 μg/mL, 6 h, relative to untreated cells; for blocking of BGP- or dWGP-driven NFκB-SEAP activation: pre-incubation 1 h before BGP or dWGP 100 μg/mL. It is filed as cell-based.

Assay [2] deals with mTOR (phospho-S6 ribosomal protein). Briefly: Intracellular phospho-S6 staining by flow cytometry (mTOR activity). It is filed as cell-based, human. Particulars: 15 min pre-treatment, dWGP 10 μg/mL 2 h. On the procedure: To analyse phospho-S6 ribosomal protein activity after β-glucan treatment, PBMCs were isolated as above and resuspended in RPMI-1640 media supplemented with 10% human AB serum (Sigma-Aldrich) at 2×10^6/mL. Cells were first incubated with metabolic inhibitors for 15 min as indicated above. […] After the incubation time, cells were resuspended by vortexing quickly, washed in flow buffer; [PBS-1× (Gibco) supplemented with 5% heat inactivated FBS (Gibco) and 0.1% Sodium azide (Sigma)] and the following flow cytometry staining protocol was applied to all samples with up to 100,000 cells per sample. Cells were stained with fixable viability stain ZombieAqua™ (Biolegend) at the concentration of 1:500 for 15 minutes. Subsequently, samples were washed with flow buffer and incubated with anti-Dectin-1-PE (clone 15E2, Biolegend) antibody for Dectin-1 surface staining, then washed and fixed 20 minutes with IC Fixation Buffer (Invitrogen). […] All cells were subsequently washed with flow buffer and resuspended 20 minutes with IC Fixation Buffer (Invitrogen) for fixation. Cells were then washed with flow buffer, incubated at 4° C. for 30 minutes with Perm/Wash Buffer (BD Biosciences) containing anti-phospho-S6-PE (Ser235/236) (cloneD57.2.2E, Cell Signaling) at 1:200 for intracellular pS6 staining, and finally washed again with flow buffer. Compensation controls were obtained after staining UltraComp eBeads™ Compensation Beads (Invitrogen) with the appropriate antibodies. Cells were acquired on the BD flow cytometer Canto II with FACSDiva software. Data analysis and flow charts were performed using FlowJo software v.7.6 (TreeStar).
For orientation: Flow cytometry measures light scatter and fluorescence of single cells or particles in a stream.

The next assay concerns human monocytes. Briefly: TNF production by monocytes 24 h post-training (monocyte activation). The format is cell-based. Particulars: TNF 24 h after dWGP.
Assay [3] has as its system bone marrow hematopoietic stem & progenitor cells (HSPC). Briefly: In vivo induction of trained immunity: flow cytometry of mouse bone marrow HSPC populations. Particulars: 0.050% w/w in chow, 4 weeks.
A further assay has as its target T2, Dectin-1 (Homo sapiens, UniProt Q9BXN2).
T2 construct: incubated with anti-Dectin-1-PE (clone 15E2, Biolegend) antibody for Dectin-1 surface staining; endogenous in cells; host or cells: primary human monocytes (PBMC from buffy coats)
T2 sequence (Q9BXN2 1-247): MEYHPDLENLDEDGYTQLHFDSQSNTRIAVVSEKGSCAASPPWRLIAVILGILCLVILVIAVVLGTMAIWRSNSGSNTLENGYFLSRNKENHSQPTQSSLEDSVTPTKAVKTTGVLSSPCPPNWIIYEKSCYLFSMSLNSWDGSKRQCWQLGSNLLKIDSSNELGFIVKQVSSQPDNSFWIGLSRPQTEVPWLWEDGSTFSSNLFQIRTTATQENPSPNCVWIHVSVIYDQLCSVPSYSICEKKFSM
Kind of assay: Surface Dectin-1 expression on monocytes by flow cytometry. The format is cell-based. Particulars: CytD 10 μM 1 h before dWGP 100 μg/mL 15 min. As for the experimental part:
To analyse phospho-S6 ribosomal protein activity after β-glucan treatment, PBMCs were isolated as above and resuspended in RPMI-1640 media supplemented with 10% human AB serum (Sigma-Aldrich) at 2×10^6/mL. Cells were first incubated with metabolic inhibitors for 15 min as indicated above. […] After the incubation time, cells were resuspended by vortexing quickly, washed in flow buffer; [PBS-1× (Gibco) supplemented with 5% heat inactivated FBS (Gibco) and 0.1% Sodium azide (Sigma)] and the following flow cytometry staining protocol was applied to all samples with up to 100,000 cells per sample. Cells were stained with fixable viability stain ZombieAqua™ (Biolegend) at the concentration of 1:500 for 15 minutes. Subsequently, samples were washed with flow buffer and incubated with anti-Dectin-1-PE (clone 15E2, Biolegend) antibody for Dectin-1 surface staining, then washed and fixed 20 minutes with IC Fixation Buffer (Invitrogen). Alternatively, cells were incubated with anti-CD14-APC (clone M5E2, Biolegend), anti-CD16-PE-Cy7 (clone 3G8, Biolegend), anti-HLA-DR-BB515 (clone G46-6, BD Bioscience) at a concentration of 1:100 in flow buffer for 30 minutes at 4° C. All cells were subsequently washed with flow buffer and resuspended 20 minutes with IC Fixation Buffer (Invitrogen) for fixation. […]

Where two headings read alike, the source gives them in different places.

Procedure for Dectin-1b: SEAP activity in supernatants was measured 6 h post-stimulation and quantified relative to untreated cells (−).
hDectin1b-HEK293 NFκB-SEAP reporter cells were obtained from Invivogen and were cultured according to manufacturer's instructions. Puromycin and HEK-Blue™ CLR Selection (Invivogen) were used as selective antibiotics and cells were cultured using DMEM (4.5 g/L glucose), 10% (v/v) fetal bovine serum (FBS), 100 U/ml penicillin, 100 μg/ml streptomycin, 100 μg/ml Normocin and 2 mM L-glutamine.
hDectin1b-HEK293 NFκB-SEAP reporter cells (Invivogen) were cultured according to manufacturer's instructions. Reporter cell assays were carried out by seeding at 50,000 cells per well in 180 μL in a 96 well flat-bottomed plate and incubating the cells with 20 μL of the indicated agonists overnight. SEAP activity was measured using QUANTI-Blue (Invivogen) according to the manufacturer's instructions. Briefly, 20 μL of supernatant was added to 180 μL of QUANTI-Blue solution and incubated at 37° C. for 15 minutes. Optical density at 620 nm was then measured using a plate reader.

With Curdlan, the “TNF production upon LPS restimulation (training)” value in assay [1] (monocytes exposed 24 h, matured 5 days, LPS 10 ng/ml 6 h, vs untrained) is “A trend toward some training was observed”. Moreover, the “NFκB-linked SEAP activity (Dectin-1b activation)” value at Dectin-1b was “drive NFκB signaling in a dose-dependent fashion”.
For `CO/C1=C\C(C)=C\[C@@H](C)[C@@H](O)[C@@H](C)C/C(C)=C/C=C/[C@H](OC)[C@@H]([C@@H](C)[C@@H](O)[C@H](C)[C@@]2(O)C[C@@H](O)[C@H](C)[C@@H](C(C)C)O2)OC1=O` [bafilomycin A1], the “effect of inhibitor pre-treatment on dWGP-driven p-S6 / mTOR activation” value in assay [2] was “profound decrease in monocyte mTOR activation by dWGP”.
Take Pustulan: at Dectin-1b, the “NFκB-linked SEAP activity (Dectin-1b activation)” value is given as “drive NFκB signaling in a dose-dependent fashion”.
Take laminarin: the “effect of inhibitor pre-treatment on β-glucan training (TNF after LPS restimulation)” value in assay [1] was “more effective at all doses tested”. The “blocking of BGP- or dWGP-driven NFκB-SEAP activation” value on Dectin-1b is “block Dectin-1b mediated NFκB activation”.
Turning to `Cc1ccc(S(=O)(=O)/C=C/C#N)cc1` [BAY 11-7082], the “effect of inhibitor pre-treatment on β-glucan training (TNF after LPS restimulation)” value in assay [1] (inhibitor added to monocytes prior to training with dWGP and/or BGP, LPS 10 ng/ml 6 h) is reported as “abolishment of LPS-restimulation driven TNF production in trained macrophages”. In addition, in the assay with human monocytes, the “effect of inhibitor pre-treatment on early monocyte TNF production driven by dWGP” value is “enhanced early TNF production”.
inulin: in assay [3], the “trained immunity-like effects (bone marrow progenitors, BMDM cytokines)” value is listed as “behaving similarly to control chow-fed mice”.
Regarding `C=C1[C@@H](C)[C@H]2[C@H](Cc3ccccc3)NC(=O)[C@]23[C@H](OC(C)=O)/C=C/[C@@](C)(O)C(=O)[C@@H](C)C/C=C/[C@H]3[C@@H]1O` [cytD, cytochalasin-D], the “effect of inhibitor on dWGP-induced loss of surface Dectin-1” value on Dectin-1 is “blunts this effect”. In addition, the “effect of inhibitor pre-treatment on dWGP-driven p-S6 / mTOR activation” value in assay [2] is “blocked monocyte mTOR activation driven by dWGP”. In addition, the “effect of inhibitor pre-treatment on β-glucan training (TNF after LPS restimulation)” value in assay [1] was “preferentially blocked the training effect”.
For the molecule `Oc1cc(O)cc(/C=C/c2ccc(O)c(O)c2)c1` [PIC, picethanol], the “effect of inhibitor pre-treatment on dWGP-driven p-S6 / mTOR activation” value in assay [2] is on record as “did not affect mTOR up-regulation”. Moreover, the “effect of inhibitor pre-treatment on β-glucan training (TNF after LPS restimulation)” value in assay [1] is “suppressed monocyte training driven by both BGP and dWGP”. Also, the “effect of inhibitor pre-treatment on early monocyte TNF production driven by dWGP” value in the assay on human monocytes is “block traditional pro-inflammatory signaling and monocyte TNF production”. In addition, the “blocking of BGP- or dWGP-driven NFκB-SEAP activation” value on Dectin-1b is “blocking NFκB activation driven by dWGP and BGP”.
For the molecule `O=CC[C@@H](O)[C@H](O)[C@H](O)CO` [2DG, 2-deoxyglucose], in assay [1], the “effect of inhibitor pre-treatment on β-glucan training (TNF after LPS restimulation)” value was “abolished the ability of dWGP to increase LPS-restimulation responses”.
